# Legend:
# Assay type in all cases: in vivo
# [1] = system: Alopecurus myosuroides (ALOMY); assay: Pre-emergence biological efficacy, glasshouse pot test; settings: 312 h, pre-emergence, rate 1,000 g/ha, evaluated after 13 days (100=total damage to plant; 0=no damage), read-out: Percentage damage caused to weed species, ALOMY
# Summary of the method: (§1)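 Sow seeds in pots of standard soil; after one day in the glasshouse, spray test compound (1000 or 250 g/ha) in aqueous acetone/water with 0.5% Tween 20. Grow 13 days at 24/16 °C day/night, then score damage from 0 to 100.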
# [2] = system: Echinochloa crus-galli (ECHCG); assay: as above; settings: 312 h, pre-emergence, rate 1,000 g/ha, evaluated after 13 days (100=total damage to plant; 0=no damage), read-out: Percentage damage caused to weed species, ECHCG
# Summary of the method: as §1
# [3] = system: Solanum nigrum (SOLNI); assay: as above; settings: 312 h, pre-emergence, rate 1,000 g/ha, evaluated after 13 days (100=total damage to plant; 0=no damage), read-out: Percentage damage caused to weed species, SOLNI
# Summary of the method: as §1
# [4] = system: Amaranthus retoflexus (AMARE); assay: as above; settings: Amaranthus retroflexus, 312 h; pre-emergence, rate 1,000 g/ha, evaluated after 13 days (100=total damage to plant; 0=no damage); read-out: Percentage damage caused to weed species, AMARE
# Summary of the method: as §1
# [5] = system: Setaria faberi (SETFA); assay: as above; settings: 312 h, pre-emergence, rate 1,000 g/ha, evaluated after 13 days (100=total damage to plant; 0=no damage), read-out: Percentage damage caused to weed species, SETFA
# Summary of the method: as §1
# [6] = system: Ipomea hederaceae (IPOHE); assay: as above; settings: Ipomoea hederacea, 312 h; pre-emergence, rate 1,000 g/ha, evaluated after 13 days (100=total damage to plant; 0=no damage); read-out: Percentage damage caused to weed species, IPOHE
# Summary of the method: as §1
# [7] = system: Alopecurus myosuroides (ALOMY); assay: Post-emergence biological efficacy, glasshouse pot test; settings: 312 h, Rate 1,000 g/ha, post-emergence spray, evaluated after 13 days (100=total damage to plant; 0=no damage to plant), read-out: Percentage damage caused to weed species, post-emergence, ALOMY
# Summary of the method: (§2)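 Scored 13 days after spraying on a 0 (no damage) to 100 (total damage) scale. Treatment was a post-emergence spray at 1000 or 250 g/ha, from acetone/water 50:50 plus 0.5% Tween 20, onto 8-day-old plants in soil pots. Growth at 24/16° C, 14 h photoperiod, 65% humidity, watered twice daily.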
# [8] = system: Echinochloa crus-galli (ECHCG); assay: as above; settings: 312 h, Rate 1,000 g/ha, post-emergence spray, evaluated after 13 days (100=total damage to plant; 0=no damage to plant), read-out: Percentage damage caused to weed species, post-emergence, ECHCG
# Summary of the method: as §2
# [9] = system: Solanum nigrum (SOLNI); assay: as above; settings: 312 h, Rate 1,000 g/ha, post-emergence spray, evaluated after 13 days (100=total damage to plant; 0=no damage to plant), read-out: Percentage damage caused to weed species, post-emergence, SOLNI
# Summary of the method: as §2
# [10] = system: Amaranthus retoflexus (AMARE); assay: as above; settings: Amaranthus retroflexus, 312 h; Rate 1,000 g/ha; post-emergence spray; evaluated after 13 days (100=total damage to plant; 0=no damage to plant); read-out: Percentage damage caused to weed species, post-emergence, AMARE
# Summary of the method: as §2
# [11] = system: Setaria faberi (SETFA); assay: as above; settings: 312 h, Rate 1,000 g/ha, post-emergence spray, evaluated after 13 days (100=total damage to plant; 0=no damage to plant), read-out: Percentage damage caused to weed species, post-emergence, SETFA
# Summary of the method: as §2
# [12] = system: Ipomea hederaceae (IPOHE); assay: as above; settings: Ipomoea hederacea, 312 h; Rate 1,000 g/ha; post-emergence spray; evaluated after 13 days (100=total damage to plant; 0=no damage to plant); read-out: Percentage damage caused to weed species, post-emergence, IPOHE
# Summary of the method: as §2
SMILES,pest or weed control at 1000 g/ha [1],pest or weed control at 1000 g/ha [2],pest or weed control at 1000 g/ha [3],pest or weed control at 1000 g/ha [4],pest or weed control at 1000 g/ha [5],pest or weed control at 1000 g/ha [6],pest or weed control at 1000 g/ha [7],pest or weed control at 1000 g/ha [8],pest or weed control at 1000 g/ha [9],pest or weed control at 1000 g/ha [10],pest or weed control at 1000 g/ha [11],pest or weed control at 1000 g/ha [12]
"COC(=O)c1nc(-c2ccc(C)cc2F)nc(NCc2ccco2)c1Cl [Compound 257-48, 5-Chloro-2-(2-fluoro-4-methylphenyl)-4-(furan-2-ylmethylamino)-6-methoxycarbonyl-pyrimidine]",20%,40%,10%,90%,10%,30%,20%,10%,40%,100%,0%,60%
"COC(=O)c1nc(-c2ccc(OC)cc2F)nc(NCc2ccco2)c1Cl [Compound 258-48, 5-Chloro-2-(2-fluoro-4-methoxyphenyl)-4-(furan-2-ylmethyl-amino)-6-methoxy-carbonylpyrimidine]",30%,0%,0%,70%,20%,30%,10%,0%,50%,90%,40%,30%
"COC(=O)c1nc(-c2ccc(OC)c(OC)c2)nc(NCc2ccco2)c1Cl [Compound 260-48, 5-Chloro-2-(3,4-dimethoxyphenyl)-4-(furan-2-ylmethyl-amino)-6-methoxy-carbonylpyrimidine]",0%,0%,0%,0%,0%,0%,0%,0%,30%,20%,0%,0%
"COC(=O)c1nc(-c2ccc(Cl)c(N(C)C)c2F)nc(NCc2ccco2)c1Cl [Compound 261-48, 5-Chloro-2-(4-chloro-3-dimethylamino-2-fluorophenyl)-4-(furan-2-yl-methyl-amino)-6-methoxy-carbonylpyrimidine]",50%,90%,40%,100%,90%,30%,50%,70%,80%,100%,90%,60%
"COC(=O)c1nc(-c2ccc(Cl)s2)nc(NC2CC2)c1Cl [Compound 262-30, 5-Chloro-2-(5-chloro-thiophen-2-yl)-4-cyclopropylamino-6-methoxycarbonyl-pyrimidine]",0%,0%,0%,0%,0%,0%,0%,10%,90%,80%,10%,50%
"COC(=O)c1nc(-c2ccc(Cl)s2)nc(NCc2ccco2)c1Cl [Compound 262-48, 5-Chloro-2-(5-chlorothiophen-2-yl)-4-(furan-2-yl-methylamino)-6-methoxycarbonyl-pyrimidine]",0%,0%,20%,80%,0%,0%,20%,20%,80%,100%,0%,60%
"O=C(NCc1ccccc1)c1nc(C2CC2)nc(NCc2ccccc2)c1Cl [Compound 265-1, 5-chloro-2-cyclopropyl-4-phenylmethylamino-6-phenylmethylaminocarbonyl pyrimidine]",0%,0%,10%,30%,0%,0%,10%,0%,50%,80%,0%,70%
"O=C(NCc1ccco1)c1nc(C2CC2)nc(NCc2ccco2)c1Cl [Compound 265-3, 5-Chloro-2-cyclopropyl-4-(furan-2-ylmethylamino)-6-(furan-2-yl-methylamino-carbonyl)-pyrimidine]",20%,30%,60%,60%,40%,90%,20%,30%,70%,70%,20%,70%
"O=C(NCc1cccs1)c1nc(C2CC2)nc(NCc2cccs2)c1Cl [Compound 265-4, 5-Chloro-2-cyclopropyl-4-(thiophen-2-ylmethylamino)-6-(thiophen-2-yl-methylamino-carbonyl)-pyrimidine]",0%,0%,0%,20%,0%,0%,20%,20%,50%,50%,20%,50%
"Cc1c(NCC2CC2)nc(C2CC2)nc1OCC(=O)NCC1CC1 [Compound 266-20, 2-cyclopropyl-4-cyclopropylmethylamino-6-cyclopropylmethylaminocarbonylmethoxy-5-methylpyrimidine]",0%,0%,50%,100%,0%,40%,0%,0%,80%,90%,0%,70%
